Measurements: patent US11697648B2, “Fused pyrimidine pyridinone compounds as JAK inhibitors” (THERAVANCE BIOPHARMA R&D IP, LLC, priority 2019, dated 2023)

Legend:
[1] = test system: IL-2 stimulated STAT5 phosphorylation in Tall-1 human T cell line (JAK3); assay: Cellular JAK3 potency assay: inhibition of IL-2 stimulated pSTAT5 in Tall-1 T cells; type: cell-based; details: IL-2 stimulated pSTAT5, Tall-1 T cells
In short: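 AlphaLISA SureFire Ultra measures STAT5 Tyr694/699 phosphorylation in lysed Tall-1 human T cells. Cells were exposed to compound for 1 h at 37 °C before a 30 min IL-2 challenge (300 ng/ml final). Values are pIC50 means with standard deviation from signal-versus-concentration curves.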

JAK2 = JAK2 (Homo sapiens (Human), UniProt O60674); assay: Biochemical JAK2 kinase assay (LanthaScreen)
In short: (§1)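 GST-JAK + GFP-STAT1 peptide, HEPES pH 7.5/MgCl2/EGTA/Brij-35 buffer; cpd preincubation 1 h RT; ATP start, 1 h RT; stop with 10 mM EDTA + 2 nM Tb-anti-pSTAT1; TR-FRET 520/495. 4-parameter IC50 → pKi (Cheng-Prusoff).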

[2] = Colon and plasma mouse pharmacokinetics; type: in vivo; details: mouse, colon tissue / plasma; male Balb/c mice, 10 mg/kg PO; ratio of the colon AUC to the plasma AUC
Procedure: Assay 5: Colon and Plasma Mouse Pharmacokinetics
To 6 male Balb/c mice was administered 10 mg/kg of compound in 1% HPMC+0.1% Tween-80 by PO administration. At 0.5, 2 and 6 hours after dose administration, animals were anesthetized, and terminal blood samples were collected by cardiac puncture, followed by collection of colon contents and colon tissue.
Blood samples were collected into K2EDTA and stored on wet ice until processed to plasma by centrifugation (12000 rpm at 4° C.). Plasma samples were transferred to cluster tubes and placed on dry ice prior to freezer storage. The colon contents from each animal were collected at each terminal blood collection time point. The colon tissues were flushed with saline and patted dry. The colon and colon content tissues were homogenized using sterile water containing 0.1% formic acid 9:1 (water:tissue, v/w). The homogenized tissues and colon contents were transferred to cluster tubes and placed on dry ice prior to freezer storage. All samples were analyzed using LC/MS/MS against analytical standards.
The composite pharmacokinetic parameters of the compounds were determined by non-compartmental analysis using Phoenix WinNonlin Version 6 (Certara, St. Louis, Mo.) and using mean values from 2 animals/time point. For plasma concentrations below the quantification limit (BQL), the lowest concentration measurable or the BLOQ (below limit of quantification) was used.
A colon to plasma ratio was determined as the ratio of the colon AUC to the plasma AUC.

Tyk2 = Tyk2 (Homo sapiens (Human), UniProt P29597); assay: Biochemical Tyk2 kinase assay (LanthaScreen)
In short: as §1

JAK1 = JAK1 (Homo sapiens (Human), UniProt P23458); assay: Biochemical JAK1 kinase assay (LanthaScreen)
In short: as §1

Caco-2 cell monolayers = assay: Caco-2 permeation assay; type: in vitro ADME; details: 5 μM, A-B direction, with Verapamil (25 μM)
In short: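 Passive A-to-B permeability with P-gp inhibited by verapamil (25 μM); compound at 5 μM, n=2. Both compartments sampled at t0 and t120 and quantified by LC-MS/MS, giving apparent permeability in cm/sec from flux, area and concentration.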

JAK3 = JAK3 (Homo sapiens (Human), UniProt P52333); assay: Biochemical JAK3 kinase assay (LanthaScreen); details: for JAK3 (pKi)-JAK1 (pKi): selectivity JAK3 over JAK1, difference of pKi
In short: as §1

Sequence of Tyk2 (P29597 whole entry): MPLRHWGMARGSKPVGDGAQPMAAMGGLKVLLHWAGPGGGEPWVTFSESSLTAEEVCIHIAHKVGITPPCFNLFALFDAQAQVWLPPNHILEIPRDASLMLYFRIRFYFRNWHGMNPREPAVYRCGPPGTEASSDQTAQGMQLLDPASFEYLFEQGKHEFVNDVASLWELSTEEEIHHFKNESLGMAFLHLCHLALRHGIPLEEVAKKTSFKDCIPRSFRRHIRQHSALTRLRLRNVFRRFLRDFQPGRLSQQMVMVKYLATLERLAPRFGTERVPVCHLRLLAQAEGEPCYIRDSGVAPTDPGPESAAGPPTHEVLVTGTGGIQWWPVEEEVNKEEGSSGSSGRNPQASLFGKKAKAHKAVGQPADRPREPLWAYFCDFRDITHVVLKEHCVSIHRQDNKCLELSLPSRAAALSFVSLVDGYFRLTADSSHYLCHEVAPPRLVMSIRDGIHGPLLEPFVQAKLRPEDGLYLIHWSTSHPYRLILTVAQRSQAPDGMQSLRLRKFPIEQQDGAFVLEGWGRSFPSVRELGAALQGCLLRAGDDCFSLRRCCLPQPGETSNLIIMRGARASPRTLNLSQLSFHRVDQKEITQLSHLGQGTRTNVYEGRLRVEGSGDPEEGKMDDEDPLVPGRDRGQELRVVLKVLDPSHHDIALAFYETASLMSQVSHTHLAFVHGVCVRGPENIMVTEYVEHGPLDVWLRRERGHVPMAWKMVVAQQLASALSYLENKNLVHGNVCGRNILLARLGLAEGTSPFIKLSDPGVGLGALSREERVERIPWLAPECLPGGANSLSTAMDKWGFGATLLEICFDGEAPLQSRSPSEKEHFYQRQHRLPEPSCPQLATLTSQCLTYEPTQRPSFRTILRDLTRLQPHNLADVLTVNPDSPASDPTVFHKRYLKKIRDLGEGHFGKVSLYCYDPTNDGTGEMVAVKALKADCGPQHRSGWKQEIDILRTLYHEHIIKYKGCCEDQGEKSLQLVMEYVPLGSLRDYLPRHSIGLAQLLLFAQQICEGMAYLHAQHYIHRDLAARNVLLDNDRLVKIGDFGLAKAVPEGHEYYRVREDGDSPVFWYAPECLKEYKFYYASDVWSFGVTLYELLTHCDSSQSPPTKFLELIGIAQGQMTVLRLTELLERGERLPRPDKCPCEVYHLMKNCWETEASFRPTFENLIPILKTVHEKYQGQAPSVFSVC
Sequence of JAK3 (P52333 whole entry): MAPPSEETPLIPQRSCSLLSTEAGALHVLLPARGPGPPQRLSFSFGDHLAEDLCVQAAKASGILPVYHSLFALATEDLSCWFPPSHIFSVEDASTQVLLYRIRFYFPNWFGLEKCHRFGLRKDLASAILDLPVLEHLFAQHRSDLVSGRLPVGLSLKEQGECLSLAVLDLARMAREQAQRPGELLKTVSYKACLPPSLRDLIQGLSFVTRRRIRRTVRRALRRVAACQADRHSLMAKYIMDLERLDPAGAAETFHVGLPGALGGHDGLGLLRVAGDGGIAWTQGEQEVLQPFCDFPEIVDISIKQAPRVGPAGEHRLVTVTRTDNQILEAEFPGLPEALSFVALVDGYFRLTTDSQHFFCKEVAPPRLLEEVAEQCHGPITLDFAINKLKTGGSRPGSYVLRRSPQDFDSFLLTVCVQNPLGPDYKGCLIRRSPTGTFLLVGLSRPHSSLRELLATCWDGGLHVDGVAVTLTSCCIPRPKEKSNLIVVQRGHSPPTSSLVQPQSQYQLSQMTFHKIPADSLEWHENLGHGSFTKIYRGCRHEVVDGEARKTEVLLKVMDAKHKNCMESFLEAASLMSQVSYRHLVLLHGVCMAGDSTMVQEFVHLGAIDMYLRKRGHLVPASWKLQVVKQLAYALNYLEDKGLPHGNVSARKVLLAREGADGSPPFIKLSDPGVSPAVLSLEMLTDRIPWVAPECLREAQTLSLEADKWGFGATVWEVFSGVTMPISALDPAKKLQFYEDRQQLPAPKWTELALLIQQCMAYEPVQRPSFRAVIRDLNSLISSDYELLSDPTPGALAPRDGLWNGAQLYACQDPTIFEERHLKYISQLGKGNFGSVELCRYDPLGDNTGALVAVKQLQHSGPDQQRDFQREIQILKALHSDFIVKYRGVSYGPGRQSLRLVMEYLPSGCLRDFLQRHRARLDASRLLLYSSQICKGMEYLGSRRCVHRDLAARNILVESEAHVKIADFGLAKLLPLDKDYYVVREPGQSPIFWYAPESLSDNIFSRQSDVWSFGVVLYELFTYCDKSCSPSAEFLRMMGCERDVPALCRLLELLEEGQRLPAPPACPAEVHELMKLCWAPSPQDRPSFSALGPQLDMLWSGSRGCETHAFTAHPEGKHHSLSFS
Sequence of JAK2 (O60674 whole entry): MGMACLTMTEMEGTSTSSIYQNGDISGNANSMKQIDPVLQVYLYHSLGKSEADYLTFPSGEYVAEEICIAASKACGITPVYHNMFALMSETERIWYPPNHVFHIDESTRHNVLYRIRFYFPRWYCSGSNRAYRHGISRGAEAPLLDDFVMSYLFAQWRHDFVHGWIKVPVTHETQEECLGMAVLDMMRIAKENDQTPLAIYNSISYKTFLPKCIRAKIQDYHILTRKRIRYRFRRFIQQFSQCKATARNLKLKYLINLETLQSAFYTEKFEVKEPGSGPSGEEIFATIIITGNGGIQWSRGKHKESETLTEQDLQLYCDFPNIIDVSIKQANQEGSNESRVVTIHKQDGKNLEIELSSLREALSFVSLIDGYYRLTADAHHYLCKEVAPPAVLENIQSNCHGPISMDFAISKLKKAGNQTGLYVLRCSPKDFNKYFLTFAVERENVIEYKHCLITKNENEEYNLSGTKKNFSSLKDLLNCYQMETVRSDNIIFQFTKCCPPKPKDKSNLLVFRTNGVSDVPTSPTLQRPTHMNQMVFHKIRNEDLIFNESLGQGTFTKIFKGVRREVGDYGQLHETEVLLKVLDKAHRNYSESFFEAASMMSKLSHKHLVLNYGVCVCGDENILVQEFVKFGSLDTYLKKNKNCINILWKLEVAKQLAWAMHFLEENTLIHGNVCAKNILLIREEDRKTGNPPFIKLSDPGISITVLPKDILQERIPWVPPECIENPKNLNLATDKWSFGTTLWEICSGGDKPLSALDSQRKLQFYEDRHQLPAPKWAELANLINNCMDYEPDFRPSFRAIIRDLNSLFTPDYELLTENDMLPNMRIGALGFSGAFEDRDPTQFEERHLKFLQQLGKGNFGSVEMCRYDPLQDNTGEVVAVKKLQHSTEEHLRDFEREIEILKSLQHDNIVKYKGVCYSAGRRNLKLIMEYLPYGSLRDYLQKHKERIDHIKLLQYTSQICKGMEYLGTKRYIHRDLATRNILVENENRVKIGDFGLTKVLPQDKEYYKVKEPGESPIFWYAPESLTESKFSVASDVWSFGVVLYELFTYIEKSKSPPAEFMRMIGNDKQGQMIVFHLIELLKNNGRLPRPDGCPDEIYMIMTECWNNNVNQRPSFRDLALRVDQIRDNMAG
Sequence of JAK1 (P23458 whole entry): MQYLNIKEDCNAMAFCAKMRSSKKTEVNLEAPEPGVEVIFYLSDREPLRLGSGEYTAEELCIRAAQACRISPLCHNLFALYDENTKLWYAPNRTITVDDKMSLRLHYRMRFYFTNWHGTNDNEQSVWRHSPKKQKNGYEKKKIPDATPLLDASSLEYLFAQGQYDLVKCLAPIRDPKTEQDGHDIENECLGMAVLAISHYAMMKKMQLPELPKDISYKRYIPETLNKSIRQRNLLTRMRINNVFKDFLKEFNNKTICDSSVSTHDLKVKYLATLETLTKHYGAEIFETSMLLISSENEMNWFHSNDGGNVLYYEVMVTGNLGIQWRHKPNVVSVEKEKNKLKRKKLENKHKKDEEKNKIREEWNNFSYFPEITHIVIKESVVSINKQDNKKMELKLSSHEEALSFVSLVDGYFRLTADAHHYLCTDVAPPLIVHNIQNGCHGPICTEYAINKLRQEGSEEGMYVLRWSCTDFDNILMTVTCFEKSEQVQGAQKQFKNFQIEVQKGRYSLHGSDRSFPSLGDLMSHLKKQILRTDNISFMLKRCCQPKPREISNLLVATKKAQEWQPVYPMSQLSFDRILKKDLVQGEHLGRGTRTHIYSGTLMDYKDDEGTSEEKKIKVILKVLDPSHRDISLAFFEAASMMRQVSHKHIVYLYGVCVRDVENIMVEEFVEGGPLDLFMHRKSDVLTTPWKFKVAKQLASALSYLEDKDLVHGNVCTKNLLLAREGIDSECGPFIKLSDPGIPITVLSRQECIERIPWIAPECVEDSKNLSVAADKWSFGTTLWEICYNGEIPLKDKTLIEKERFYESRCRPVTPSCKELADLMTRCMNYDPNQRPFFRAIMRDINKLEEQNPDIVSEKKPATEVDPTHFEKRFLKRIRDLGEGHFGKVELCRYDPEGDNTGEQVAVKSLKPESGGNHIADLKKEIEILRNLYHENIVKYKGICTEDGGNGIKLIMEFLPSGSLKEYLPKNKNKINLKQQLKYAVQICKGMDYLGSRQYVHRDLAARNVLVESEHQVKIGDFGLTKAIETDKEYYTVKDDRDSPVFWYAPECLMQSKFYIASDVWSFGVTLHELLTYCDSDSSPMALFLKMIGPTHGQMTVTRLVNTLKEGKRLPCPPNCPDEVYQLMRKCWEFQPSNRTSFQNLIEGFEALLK

| Compound | Tall-1 (pIC50) [1] | JAK 2 (pKi) (JAK2) | Kp [2] | Tyk 2 (pKi) (Tyk2) | JAK 1 (pKi) (JAK1) | Caco Kp (Caco-2 cell monolayers) | JAK 3 (pKi) (JAK3) | JAK3 (pKi)-JAK1 (pKi) (JAK3) |
| --- | --- | --- | --- | --- | --- | --- | --- | --- |
| C=CC(=O)N1CC(CCn2c(=O)ccc3cnc(Nc4cccc(N5CCN(C(=O)CSC)CC5)c4)nc32)C1 [Example 107] | B (B represents a pC50 value between 6.7 (included) and 7.5 (IC50 between 200 nM and 32 nM)) | E (E represents a pKi value of 7 or below (Ki of 100 nM or above)) | > 50 | E (E represents a pKi value of 7 or below (Ki of 100 nM or above)) | E (E represents a pKi value of 7 or below (Ki of 100 nM or above)) | A (A represents a value below 5×10^−6 cm/sec) | B (B represents pKi value between 9 and 10 (Ki between 1 nM and 0.1 nM)) | A (A represents a value of 3 or above) |
| C=CC(=O)N1CCN(CCn2c(=O)ccc3cnc(Nc4ccc(N5CCN(C(C)=O)CC5)cc4)nc32)CC1 [Example 79] | B (B represents a pC50 value between 6.7 (included) and 7.5 (IC50 between 200 nM and 32 nM)) | E (E represents a pKi value of 7 or below (Ki of 100 nM or above)) | > 1000 | E (E represents a pKi value of 7 or below (Ki of 100 nM or above)) | E (E represents a pKi value of 7 or below (Ki of 100 nM or above)) | A (A represents a value below 5×10^−6 cm/sec) | B (B represents pKi value between 9 and 10 (Ki between 1 nM and 0.1 nM)) | A (A represents a value of 3 or above) |
| C=CC(=O)N1CC(CCn2c(=O)ccc3cnc(Nc4cccc(CN5CCOCC5)c4)nc32)C1 [Example 27] | B (B represents a pC50 value between 6.7 (included) and 7.5 (IC50 between 200 nM and 32 nM)) | E (E represents a pKi value of 7 or below (Ki of 100 nM or above)) | > 100 | E (E represents a pKi value of 7 or below (Ki of 100 nM or above)) | E (E represents a pKi value of 7 or below (Ki of 100 nM or above)) | C (C represents a value between 10×10^−6 and 30×10^−6 cm/sec) | B (B represents pKi value between 9 and 10 (Ki between 1 nM and 0.1 nM)) | A (A represents a value of 3 or above) |
| C=CC(=O)N1CC(CCn2c(=O)ccc3cnc(Nc4ccc(N(CC)CC)cc4)nc32)C1 [Example 88] | B (B represents a pC50 value between 6.7 (included) and 7.5 (IC50 between 200 nM and 32 nM)) | E (E represents a pKi value of 7 or below (Ki of 100 nM or above)) | > 14 | E (E represents a pKi value of 7 or below (Ki of 100 nM or above)) | E (E represents a pKi value of 7 or below (Ki of 100 nM or above)) | D (D represents a value over 30×10^−6 cm/sec) | A (A represents a pKi value≥10 (Ki≤0.1 nM)) | A (A represents a value of 3 or above) |
| C=CC(=O)N1CCN(CCn2c(=O)ccc3cnc(Nc4ccc(N5CCN(C(=O)COC)CC5)cc4)nc32)[C@@H](C)C1 [Example 175] | B (B represents a pC50 value between 6.7 (included) and 7.5 (IC50 between 200 nM and 32 nM)) | E (E represents a pKi value of 7 or below (Ki of 100 nM or above)) | > 100 | E (E represents a pKi value of 7 or below (Ki of 100 nM or above)) | E (E represents a pKi value of 7 or below (Ki of 100 nM or above)) | A (A represents a value below 5×10^−6 cm/sec) | B (B represents pKi value between 9 and 10 (Ki between 1 nM and 0.1 nM)) | A (A represents a value of 3 or above) |
| C=CC(=O)N1CC(CCn2c(=O)ccc3cnc(Nc4ccc(N5CCN(C)CC5)nc4)nc32)C1 [Example 8, 8-(2-(1-acryloylazetidin-3-yl)ethyl)-2-((6-(4-methylpiperazin-1-yl)pyridin-3-yl)amino)pyrido[2,3-d]pyrimidin-7(8H)-one] | B (B represents a pC50 value between 6.7 (included) and 7.5 (IC50 between 200 nM and 32 nM)) | E (E represents a pKi value of 7 or below (Ki of 100 nM or above)) | > 100 | E (E represents a pKi value of 7 or below (Ki of 100 nM or above)) | E (E represents a pKi value of 7 or below (Ki of 100 nM or above)) | A (A represents a value below 5×10^−6 cm/sec) | B (B represents pKi value between 9 and 10 (Ki between 1 nM and 0.1 nM)) | A (A represents a value of 3 or above) |
| C=CC(=O)N1CC(CCn2c(=O)ccc3cnc(Nc4ccc(N5CCN(C(=O)CCSC)CC5)cc4)nc32)C1 [Example 3, 8-(2-(1-acryloylazetidin-3-yl)ethyl)-2-((4-(4-(3-(methylthio)propanoyl)piperazin-1-yl)phenyl)amino)pyrido[2,3-d]pyrimidin-7(8H)-one] | B (B represents a pC50 value between 6.7 (included) and 7.5 (IC50 between 200 nM and 32 nM)) | E (E represents a pKi value of 7 or below (Ki of 100 nM or above)) | > 1000 | E (E represents a pKi value of 7 or below (Ki of 100 nM or above)) | E (E represents a pKi value of 7 or below (Ki of 100 nM or above)) | A (A represents a value below 5×10^−6 cm/sec) | A (A represents a pKi value≥10 (Ki≤0.1 nM)) | A (A represents a value of 3 or above) |
| C=CC(=O)N1CC(CCn2c(=O)ccc3cnc(Nc4ccc(CCN(C)C)cc4)nc32)C1 [Example 89] | A (A represents a pIC50 value≥7.5 (IC50≤32 nM)) | E (E represents a pKi value of 7 or below (Ki of 100 nM or above)) | > 100 | E (E represents a pKi value of 7 or below (Ki of 100 nM or above)) | E (E represents a pKi value of 7 or below (Ki of 100 nM or above)) | A (A represents a value below 5×10^−6 cm/sec) | B (B represents pKi value between 9 and 10 (Ki between 1 nM and 0.1 nM)) | A (A represents a value of 3 or above) |
| C=CC(=O)N1CC(CCn2c(=O)ccc3cnc(Nc4cccc(CN5CCN(C)CC5)c4)nc32)C1 [Example 52] | B (B represents a pC50 value between 6.7 (included) and 7.5 (IC50 between 200 nM and 32 nM)) | E (E represents a pKi value of 7 or below (Ki of 100 nM or above)) | > 100 | E (E represents a pKi value of 7 or below (Ki of 100 nM or above)) | E (E represents a pKi value of 7 or below (Ki of 100 nM or above)) | A (A represents a value below 5×10^−6 cm/sec) | B (B represents pKi value between 9 and 10 (Ki between 1 nM and 0.1 nM)) | A (A represents a value of 3 or above) |
| C=CC(=O)N1CC(CCn2c(=O)ccc3cnc(Nc4cnn(C)c4)nc32)C1 [Example 15] | B (B represents a pC50 value between 6.7 (included) and 7.5 (IC50 between 200 nM and 32 nM)) | E (E represents a pKi value of 7 or below (Ki of 100 nM or above)) | > 100 | E (E represents a pKi value of 7 or below (Ki of 100 nM or above)) | E (E represents a pKi value of 7 or below (Ki of 100 nM or above)) | B (B represents a value between 5×10^−6 and 10×10^−6 cm/sec) | B (B represents pKi value between 9 and 10 (Ki between 1 nM and 0.1 nM)) | A (A represents a value of 3 or above) |
| C=CC(=O)N1CC(CCn2c(=O)ccc3cnc(Nc4cccc(CN5CCN(C(=O)CSC)CC5)c4)nc32)C1 [Example 134] | B (B represents a pC50 value between 6.7 (included) and 7.5 (IC50 between 200 nM and 32 nM)) | E (E represents a pKi value of 7 or below (Ki of 100 nM or above)) | > 100 | E (E represents a pKi value of 7 or below (Ki of 100 nM or above)) | E (E represents a pKi value of 7 or below (Ki of 100 nM or above)) | A (A represents a value below 5×10^−6 cm/sec) | A (A represents a pKi value≥10 (Ki≤0.1 nM)) | A (A represents a value of 3 or above) |
